The term inhibition denotes how much of the control response was suppressed.

The values below come from patent publication US6803379B2, “PHARMACOLOGICAL AGENTS AND METHODS OF TREATMENT THAT INACTIVATE PATHOGENIC PROKARYOTIC AND EUKARYOTIC CELLS AND VIRUSES BY ATTACKING HIGHLY CONSERVED DOMAINS IN STRUCTURAL METALLOPROTEIN AND METALLOENZYME TARGETS” (priority 2002, dated 2004).

Structures can show the parent of a compound that is named as a salt. Where two headings read alike, the source gives them in different places.

One data set concerns virally infected cells. In words: Activity against virally infected cells relative to 2-thiophenecarboxylic acid. The data set is classed as cell-based.
The test system of data set [1] is cancer cells in tissue culture. Kind of data set: Activity against cancer cells in tissue culture relative to 2-thiophenecarboxylic acid.
For data set [2], the system named is CHO cells. In words: Growth of CHO cells (cell counts at 24, 48 and 72 h). As to conditions: for inhibition at 3000 µM / inhibition at 10000 µM / inhibition at 1000 µM: Cricetulus griseus, CHO, read-out: growth inhibition; for time within which growth was strongly inhibited: 1 mM and 3 mM.
Procedure: Cells were plated at 1.5×10^5 cells/60-mm dish; 24 hours later, the medium was removed, and new media with or without 0.05 to 10 mM final concentrations of 2-Furoic acid were added. Cell counts were determined at 24, 48 and 72 h after the addition of 2-Furoic acid; each point is the average of triplicate measurements from 3 cultures.
The subject of data set [3] is CHO cells.
Another data set is described as follows: LD-50. As to conditions: in vivo.
Data set [4] concerns many different cancer cell lines. Kind of data set: Cytotoxicity in cancer cell lines in vitro. To be noted: uM concentrations.
Data set [5] deals with human breast adenocarcinoma MDA-468 cell. Kind of data set: Growth and viability of breast adenocarcinoma MDA-468 cells. As to conditions: 50 μM. The data set is classed as cell-based. How it is done:
These floating cells were not viable. Within 48 h of treatment there was greater than 90% decrease in cell number.

Another data set has as its target LTA4 hydrolase (Homo sapiens, UniProt P09960). As to conditions: cited from earlier work.
Data set [6] deals with Human Foreskin (HF) cells infected with HSV-2-strain G. The data set is classed as cell-based.

LTA4 hydrolase, sequence (P09960 whole entry): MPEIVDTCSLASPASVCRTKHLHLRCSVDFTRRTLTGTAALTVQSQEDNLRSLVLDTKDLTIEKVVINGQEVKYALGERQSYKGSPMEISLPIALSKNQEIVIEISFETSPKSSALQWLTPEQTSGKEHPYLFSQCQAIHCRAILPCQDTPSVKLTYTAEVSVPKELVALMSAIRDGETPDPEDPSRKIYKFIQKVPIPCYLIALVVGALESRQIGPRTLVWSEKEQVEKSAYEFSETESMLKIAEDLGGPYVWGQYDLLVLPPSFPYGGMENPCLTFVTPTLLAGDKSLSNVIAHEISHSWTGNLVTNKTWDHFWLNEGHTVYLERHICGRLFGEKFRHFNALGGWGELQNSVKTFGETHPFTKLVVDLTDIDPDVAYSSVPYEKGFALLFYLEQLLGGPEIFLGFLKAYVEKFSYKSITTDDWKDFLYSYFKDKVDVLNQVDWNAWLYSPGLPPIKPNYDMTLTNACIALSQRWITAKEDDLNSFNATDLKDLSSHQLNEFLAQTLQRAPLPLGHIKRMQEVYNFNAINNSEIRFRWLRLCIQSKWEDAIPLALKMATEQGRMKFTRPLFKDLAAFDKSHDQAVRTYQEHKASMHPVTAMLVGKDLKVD

In the case of `CCCCc1csc(C(=O)NN)c1Cl`, the “times more active than 2-thiophenecarboxylic acid” value (in the data set with virally infected cells; in data set [1]) was 7-10 times throughout.
With `O=C(O)c1ccco1` [2-Furoic acid], the “time within which growth was inhibited in a dose-dependent fashion” value with CHO cells [2] (CHO cells, 3 to 10 mM) is at most 24 h. For the same compound, in the data set on CHO cells [2] (72 h), the inhibition at 3000 µM is around 20% and the inhibition at 10000 µM is around 40%. In the data set with CHO cells [3], the “toxic effects on the cells” value was “no significant toxic effects”.
As for `NNC(=O)c1cccs1` [2-TCAH, 2-thiophenecarboxylic acid hydrazide], in the data set on CHO cells [2] (CHO cells), the “time within which growth was inhibited in a dose-dependent fashion” value is at most 24 h. Further, in the data set on CHO cells [2] (72 h), the inhibition at 1000 µM was around 65% and the inhibition at 10000 µM is around 90%. In addition, the “toxic effects on the cells” value in the data set with CHO cells [3] is “significant toxic effects”.
In the data set “LD-50”, `O=C(O)c1cccs1` [2-TH acid, 2-thiophenecarboxylic acid] registered an LD-50 of 30 grams/70 Kg.
Take `O=C(O)c1oc(Cl)c(Cl)c1Cl` [3,4,5-TFA, 3,4,5-Trichloro-2-Furoic acid]: the “time within which growth was strongly inhibited” value in the data set with CHO cells [2] (CHO cells) is recorded as at most 12 h. In the data set on CHO cells [2], the inhibition at 1000 µM was above 80% and the inhibition at 3000 µM is above 99%. In addition, the “cytotoxicity and cell death, share of CHO cells” value in the data set with CHO cells [3] (Chinese hamster, 3 mM) was “greater than 99%”.
On to `NN.O=C(O)c1sc(Cl)c(Cl)c1Cl` [3,4,5-TTAH], for which the “growth of CHO cells” value in the data set on CHO cells [2] (500 uM) is given as “strongly inhibited”. In the data set on CHO cells [3] (500 uM, 24-72 hours exposure), the “cytotoxicity and cell death, share of CHO cells” value is “greater than 95%”. Also, in the data set with CHO cells [3] (500 uM, 72 h, trypan blue dye exclusion test), the “detached cells destroyed by the agent” value was above 99.9%.
Consider `O=C(O)c1sc(Cl)c(Cl)c1Cl` [3,4,5-TTA], for which the “time within which growth was strongly inhibited” value in the data set with CHO cells [2] (CHO cells) was at most 6 h. Also, in the data set on CHO cells [2], the inhibition at 1000 µM was above 98% and the inhibition at 3000 µM is 100%.
Consider `CCCCc1csc(C(=O)NN)c1` [4-B-2-TAH, 4-butyl-2-Thiophenecarboxylic Acid Hydrazide], for which the “cytotoxic effects” value in data set [4] is recorded as “pronounced cytotoxic effects”. For the same compound, the “cell number” value in data set [5] (after 12 hours of treatment) was “no further increase in cell number”. In addition, the “decrease in cell number” value in data set [5] (within 48 h of treatment) was “greater than 90%”.
Turning to `C[C@H](CS)C(=O)N1CCC[C@H]1C(=O)O` [Captopril], the “inhibition of LTA4 hydrolase, concentration range” value on LTA4 hydrolase is listed as “low uM range”.
Consider `c1ccsc1` [Thiophene, reference compound], for which, in the data set on CHO cells [2] (CHO cells, analog tested at 0.05 to 10 mM, up to 72 h), the “effect on cell growth” value is recorded as “no significant effect on cell growth”.
With `O=C(O)c1ccccn1` [picolinic acid], the “effect on infected cells” value in data set [6] is reported as “cause apoptosis of HF infected cells”.
